Biological target: T1, EMCV 3Dpol (Mengo virus, UniProt P12296)
T1 construct: mature 3Dpol cut from polyprotein (1834 to 2293, 460 residues); cleavable His6-thioredoxin tag (pETG20A) removed; expressed in E. coli Rosetta (DE3) pLysS
Test: [3H]UTP incorporation on poly(rA)/dT15, filter binding
Assay type: biochemical

T1 sequence (P12296 1834-2293): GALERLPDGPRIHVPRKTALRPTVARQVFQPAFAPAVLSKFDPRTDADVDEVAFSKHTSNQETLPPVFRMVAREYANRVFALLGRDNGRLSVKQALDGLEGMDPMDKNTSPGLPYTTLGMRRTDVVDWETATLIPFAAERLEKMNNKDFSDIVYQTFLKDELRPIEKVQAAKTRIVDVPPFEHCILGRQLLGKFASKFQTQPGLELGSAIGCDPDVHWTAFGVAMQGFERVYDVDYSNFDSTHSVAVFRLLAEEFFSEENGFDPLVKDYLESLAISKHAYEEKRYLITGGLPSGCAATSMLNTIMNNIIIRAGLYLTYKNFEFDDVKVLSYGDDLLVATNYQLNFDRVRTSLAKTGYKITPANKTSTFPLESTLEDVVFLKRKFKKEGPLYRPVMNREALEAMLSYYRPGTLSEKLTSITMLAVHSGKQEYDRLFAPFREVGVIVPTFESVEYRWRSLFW

With `N#Cc1cc([N+](=O)[O-])ccc1Oc1ccc(Cl)cc1Oc1ccc([N+](=O)[O-])cc1C#N` [GPC-N114, 2,2'-[(4-chloro-1,2-phenylene)bis(oxy)]bis(5-nitro-benzonitrile)] as the compound, how does the Ki read?
The Ki was 1300 nM.

— paper PMC4370873, “The RNA Template Channel of the RNA-Dependent RNA Polymerase as a Target for Development of Antiviral Therapy of Multiple Genera within a Virus Family” (PLoS Pathogens, 2015)
